Data on 15 molecules can be found in patent US20250136578A1 (Kolm Therapeutics Inc., priority 2023, published 2025).

Like-named read-outs stand apart in the source and are kept apart here. A value given as a limit tells only on which side of the number the result lay.

One assay addresses AR / CBP ternary complex (Homo sapiens, UniProt P10275+Q92793). As to the kind of experiment: Ternary complex formation assay (sandwich ELISA, AR capture, CBP antibody detection) in VCaP cell lysates. The format is cell-based. The essentials: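 VCaP cells in 5% charcoal-stripped FBS were cultured ≥3 days and then given bifunctional compound for 1.5 h. Lysates went onto AR-antibody-coated plates. Bound CBP (or p300) was detected with a rabbit antibody plus HRP anti-rabbit, using QuantaRed chemifluorescence (ex 570/em 585) read immediately, at 5 min and at 15 min.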
For orientation: An ELISA detects its analyte on a solid surface through an enzyme-linked reagent.

Another assay has as its system VCaP cells. The experiment in a line: VCaP growth inhibition assay (CTG). The format is cell-based. Particulars: Homo sapiens, 216 h, 30 pM R1881, 9 days. The essentials:
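VCaP cells in phenol red-free DMEM with 5% charcoal-stripped serum were stimulated with 30 pM R1881 (final) and treated with compound from 100 nM to 10 fM final (1:5 dilutions) for 9 days at 37 °C. Viability was read by CellTiter-Glo luminescence, and IC50 came from 4-parameter logistic fits.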

[1] abbreviates: treated 1.5 hours, rabbit CBP or p300 antibody detection, average, read-out: Average Ternary Complex.
Where [2] appears, read: read-out: Average Ternary Complex, treated 1.5 hours, rabbit CBP or p300 antibody detection.

Sequence of AR / CBP ternary complex (P10275 whole entry): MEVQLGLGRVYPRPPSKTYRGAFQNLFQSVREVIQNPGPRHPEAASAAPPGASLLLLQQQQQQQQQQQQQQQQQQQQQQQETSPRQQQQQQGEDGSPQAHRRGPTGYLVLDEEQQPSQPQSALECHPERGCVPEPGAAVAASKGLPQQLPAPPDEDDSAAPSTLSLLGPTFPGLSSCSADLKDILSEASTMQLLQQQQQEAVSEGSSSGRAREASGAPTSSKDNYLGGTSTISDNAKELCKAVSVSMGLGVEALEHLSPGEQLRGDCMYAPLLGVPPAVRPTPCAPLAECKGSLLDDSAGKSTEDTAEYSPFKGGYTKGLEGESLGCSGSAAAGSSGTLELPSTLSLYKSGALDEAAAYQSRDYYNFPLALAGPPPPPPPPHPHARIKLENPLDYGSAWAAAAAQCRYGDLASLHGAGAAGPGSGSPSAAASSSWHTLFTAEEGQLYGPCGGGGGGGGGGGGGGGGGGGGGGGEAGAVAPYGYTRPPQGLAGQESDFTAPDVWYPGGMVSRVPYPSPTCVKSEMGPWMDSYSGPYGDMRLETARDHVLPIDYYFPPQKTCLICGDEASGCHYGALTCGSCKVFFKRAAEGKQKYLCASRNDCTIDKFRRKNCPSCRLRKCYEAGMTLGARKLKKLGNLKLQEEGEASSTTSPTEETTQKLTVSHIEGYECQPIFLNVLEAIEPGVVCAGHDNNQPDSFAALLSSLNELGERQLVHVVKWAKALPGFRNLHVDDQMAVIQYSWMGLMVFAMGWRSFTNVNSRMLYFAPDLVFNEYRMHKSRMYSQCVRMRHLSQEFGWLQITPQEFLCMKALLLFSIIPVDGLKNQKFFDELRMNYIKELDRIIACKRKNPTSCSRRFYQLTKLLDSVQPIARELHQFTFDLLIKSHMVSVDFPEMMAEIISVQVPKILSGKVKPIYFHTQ
Sequence of AR / CBP ternary complex (Q92793 2-2442): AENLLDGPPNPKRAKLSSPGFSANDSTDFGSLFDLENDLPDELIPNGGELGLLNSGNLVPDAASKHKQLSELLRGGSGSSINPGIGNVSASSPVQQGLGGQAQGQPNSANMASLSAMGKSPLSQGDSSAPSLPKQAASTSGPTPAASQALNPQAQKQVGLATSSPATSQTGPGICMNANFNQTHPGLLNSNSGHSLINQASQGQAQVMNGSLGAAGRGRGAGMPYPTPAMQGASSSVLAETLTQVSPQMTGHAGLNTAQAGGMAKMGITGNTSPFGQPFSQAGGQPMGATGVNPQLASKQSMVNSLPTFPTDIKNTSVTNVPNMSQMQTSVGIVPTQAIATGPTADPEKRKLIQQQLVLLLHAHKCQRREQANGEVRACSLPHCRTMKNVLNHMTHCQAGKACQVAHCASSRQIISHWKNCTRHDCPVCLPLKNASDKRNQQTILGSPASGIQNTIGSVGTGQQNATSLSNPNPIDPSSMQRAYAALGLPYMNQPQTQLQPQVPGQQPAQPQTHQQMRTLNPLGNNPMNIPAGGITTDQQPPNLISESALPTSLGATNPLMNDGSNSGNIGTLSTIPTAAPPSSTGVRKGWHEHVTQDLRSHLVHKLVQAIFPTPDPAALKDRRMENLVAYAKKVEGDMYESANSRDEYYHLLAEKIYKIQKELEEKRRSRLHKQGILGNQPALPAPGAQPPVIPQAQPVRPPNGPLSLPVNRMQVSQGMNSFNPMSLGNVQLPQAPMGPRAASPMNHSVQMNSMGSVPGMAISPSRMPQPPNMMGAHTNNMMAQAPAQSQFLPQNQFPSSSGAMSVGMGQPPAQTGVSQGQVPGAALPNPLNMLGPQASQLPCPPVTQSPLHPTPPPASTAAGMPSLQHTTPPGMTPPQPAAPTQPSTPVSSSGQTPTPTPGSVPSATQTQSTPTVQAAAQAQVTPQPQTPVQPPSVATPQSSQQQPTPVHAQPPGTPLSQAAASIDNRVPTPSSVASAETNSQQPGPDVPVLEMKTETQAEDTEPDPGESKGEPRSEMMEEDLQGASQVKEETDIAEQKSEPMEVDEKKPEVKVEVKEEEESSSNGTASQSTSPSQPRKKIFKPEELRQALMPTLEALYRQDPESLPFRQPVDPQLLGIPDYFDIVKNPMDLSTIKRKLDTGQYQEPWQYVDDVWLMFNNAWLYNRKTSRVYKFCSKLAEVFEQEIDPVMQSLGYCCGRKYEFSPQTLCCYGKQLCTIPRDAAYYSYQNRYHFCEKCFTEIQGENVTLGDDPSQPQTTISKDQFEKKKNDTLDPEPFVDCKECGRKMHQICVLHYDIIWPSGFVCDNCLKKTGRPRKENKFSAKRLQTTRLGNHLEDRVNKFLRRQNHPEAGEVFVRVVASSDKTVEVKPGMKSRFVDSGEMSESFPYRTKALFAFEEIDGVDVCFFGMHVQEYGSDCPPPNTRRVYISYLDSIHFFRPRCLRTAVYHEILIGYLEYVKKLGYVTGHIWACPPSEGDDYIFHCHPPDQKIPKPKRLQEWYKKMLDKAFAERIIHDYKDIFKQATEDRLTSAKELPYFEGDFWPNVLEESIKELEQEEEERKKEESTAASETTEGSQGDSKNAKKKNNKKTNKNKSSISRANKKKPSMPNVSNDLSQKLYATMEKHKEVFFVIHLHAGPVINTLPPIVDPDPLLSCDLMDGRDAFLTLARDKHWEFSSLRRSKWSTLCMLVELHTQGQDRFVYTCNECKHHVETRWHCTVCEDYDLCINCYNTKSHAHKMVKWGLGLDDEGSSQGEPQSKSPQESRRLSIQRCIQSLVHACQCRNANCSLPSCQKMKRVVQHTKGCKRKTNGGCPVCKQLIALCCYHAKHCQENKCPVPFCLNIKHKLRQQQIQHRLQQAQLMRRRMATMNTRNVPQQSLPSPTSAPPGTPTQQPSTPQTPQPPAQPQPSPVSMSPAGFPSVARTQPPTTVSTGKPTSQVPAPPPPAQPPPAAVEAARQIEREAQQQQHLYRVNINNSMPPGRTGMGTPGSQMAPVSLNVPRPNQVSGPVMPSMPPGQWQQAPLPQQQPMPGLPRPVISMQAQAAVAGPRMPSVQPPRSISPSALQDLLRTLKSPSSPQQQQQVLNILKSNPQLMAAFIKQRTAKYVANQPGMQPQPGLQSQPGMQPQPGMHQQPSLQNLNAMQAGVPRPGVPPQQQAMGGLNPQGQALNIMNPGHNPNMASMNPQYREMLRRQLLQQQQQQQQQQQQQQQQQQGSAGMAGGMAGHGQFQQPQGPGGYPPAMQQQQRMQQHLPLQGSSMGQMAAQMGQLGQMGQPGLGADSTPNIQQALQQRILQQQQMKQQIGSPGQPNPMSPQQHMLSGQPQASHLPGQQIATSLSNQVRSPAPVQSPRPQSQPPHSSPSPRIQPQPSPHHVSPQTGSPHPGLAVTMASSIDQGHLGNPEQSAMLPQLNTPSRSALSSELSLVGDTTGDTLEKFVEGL

What is called IC50 is the concentration at which inhibition is half-maximal. High values mean weaker potency in that assay, low ones greater potency in that assay. For the molecule `Cc1cc2c(N3CCCc4cc(-c5cnn(C)c5)c(C(F)F)cc43)cc(N3CCN(CC4CCN(c5ccc(C(=O)N[C@H]6CC[C@H](Oc7ccc(C#N)c(Cl)c7)CC6)nn5)CC4)CC3)cc2n(C)c1=O` [Compound 135, N-[4-(3-chloro-4-cyano-phenoxy)cyclohexyl]-6-[4-[[4-[5-[7-(difluoromethyl)-6-(1-methylpyrazol-4-yl)-3,4-dihydro-2H-quinolin-1-yl]-1,3-dimethyl-2-oxo-7-quinolyl]piperazin-1-yl]methyl]-1-piperidyl]pyridazine-3-carboxamide], on AR / CBP ternary complex (setting [1]), the EC50 is 1 to 10 nM. Moreover, in the assay on VCaP cells, the IC50 lay within 0.1 to 1 nM.
In the same order, the values of `Cc1cc2c(N3CCN(C)c4cc(C5CC5)ncc43)cc(N3CCN(CC4CCN(c5ccc(C(=O)N[C@H]6CC[C@H](Oc7ccc(C#N)c(Cl)c7)CC6)nn5)CC4)CC3)cc2n(C)c1=O` [Compound 138, N-[4-(3-chloro-4-cyano-phenoxy)cyclohexyl]-6-[4-[[4-[5-(7-cyclopropyl-1-methyl-2,3-dihydropyrido[3,4-b]pyrazin-4-yl)-1,3-dimethyl-2-oxo-7-quinolyl]piperazin-1-yl]methyl]-1-piperidyl]pyridazine-3-carboxamide] are 1 to 10 nM and 1 to 100 nM.
For `CC(=O)N1CCc2c(c(N3CCCc4cc(-c5cnn(C)c5)c(C(F)F)cc43)nn2C2CCN(CC3CCN(c4ccc(C(=O)N[C@H]5CC[C@H](Oc6ccc(C#N)c(Cl)c6)CC5)cc4)CC3)CC2)C1` [Compound 139, 4-[4-[[4-[5-acetyl-3-[7-(difluoromethyl)-6-(1-methylpyrazol-4-yl)-3,4-dihydro-2H-quinolin-1-yl]-6,7-dihydro-4H-pyrazolo[4,3-c]pyridin-1-yl]-1-piperidyl]methyl]-1-piperidyl]-N-[4-(3-chloro-4-cyano-phenoxy)cyclohexyl] benzamide], the EC50 on AR / CBP ternary complex (setting [1]) was < 1 nM. The IC50 in the assay on VCaP cells is ≤ 0.1 nM.
On to `COc1cc(O[C@H]2CC[C@H](NC(=O)c3ccc(N4CCC(CN5CCC(n6nc(N7CCCc8cc(-c9cnn(C)c9)c(C(F)F)cc87)c7c6CCN(C(C)=O)C7)CC5)CC4)cc3)CC2)ccc1C#N` [Compound 140, 4-[4-[[4-[5-acetyl-3-[7-(difluoromethyl)-6-(1-methylpyrazol-4-yl)-3,4-dihydro-2H-quinolin-1-yl]-6,7-dihydro-4H-pyrazolo[4,3-c]pyridin-1-yl]-1-piperidyl]methyl]-1-piperidyl]-N-[4-(4-cyano-3-methoxy-phenoxy)cyclohexyl]benzamide], for which the EC50 on AR / CBP ternary complex (setting [1]) was < 1 nM. The IC50 with VCaP cells was ≤ 0.1 nM.
In the case of `CC(=O)N1CCc2c(c(N3CCCc4cc(-c5cnn(C)c5)c(C(F)F)cc43)nn2[C@@H]2CCN(CC3CCN(c4ccc(C(=O)N[C@H]5CC[C@H](Oc6ccc(C#N)c(Cl)c6)CC5)nn4)CC3)C[C@H]2F)C1` [Compound 141, 6-[4-[[(3R,4R)-4-[5-acetyl-3-[7-(difluoromethyl)-6-(1-methylpyrazol-4-yl)-3,4-dihydro-2H-quinolin-1-yl]-6,7-dihydro-4H-pyrazolo[4,3-c]pyridin-1-yl]-3-fluoro-1-piperidyl]methyl]-1-piperidyl]-N-[4-(3-chloro-4-cyano-phenoxy)cyclohexyl]pyridazine-3-carboxamide], at AR / CBP ternary complex (setting [1]), the EC50 was < 1 nM. Moreover, the IC50 in the assay on VCaP cells was ≤ 0.1 nM.
For `CC(=O)N1CCc2c(c(N3CCCc4cc(-c5cnn(C)c5)c(C(F)F)cc43)nn2[C@@H]2CCN(CC3CCN(c4ccc(C(=O)N[C@H]5CC[C@H](Oc6ccc(C#N)c(Cl)c6)CC5)nn4)CC3)C[C@@H]2F)C1` [Compound 144, 6-[4-[[(3S,4R)-4-[5-acetyl-3-[7-(difluoromethyl)-6-(1-methylpyrazol-4-yl)-3,4-dihydro-2H-quinolin-1-yl]-6,7-dihydro-4H-pyrazolo[4,3-c]pyridin-1-yl]-3-fluoro-1-piperidyl]methyl]-1-piperidyl]-N-[4-(3-chloro-4-cyano-phenoxy)cyclohexyl] pyridazine-3-carboxamide], the EC50 on AR / CBP ternary complex (setting [1]) was < 1 nM. Moreover, the IC50 with VCaP cells was ≤ 0.1 nM.
As for `CC(=O)N1CCc2c(c(N3CCCc4cc(-c5cnn(C)c5)c(C(F)F)cc43)nn2[C@H]2CC[C@H](CC3CCN(c4ccc(C(=O)N[C@H]5CC[C@H](Oc6ccc(C#N)c(Cl)c6)CC5)nn4)CC3)CC2)C1` [Compound 145, 6-[4-[[4-[5-acetyl-3-[7-(difluoromethyl)-6-(1-methylpyrazol-4-yl)-3,4-dihydro-2H-quinolin-1-yl]-6,7-dihydro-4H-pyrazolo[4,3-c]pyridin-1-yl]cyclohexyl]methyl]-1-piperidyl]-N-[4-(3-chloro-4-cyano-phenoxy)cyclohexyl]pyridazine-3-carboxamide], the EC50 at AR / CBP ternary complex (setting [1]) was < 1 nM. Also, the IC50 in the assay on VCaP cells was 0.1 to 1 nM.
Take `Cn1cc(-c2cc3cccc(-c4cc(C5=CCN(CC6CCN(c7ccc(C(=O)N[C@H]8CC[C@H](Oc9ccc(C#N)c(Cl)c9)CC8)nn7)CC6)CC5)c5c(c4)n(C)c(=O)n5C)c3cn2)cn1` [Compound 147, N-[4-(3-chloro-4-cyano-phenoxy)cyclohexyl]-6-[4-[[4-[1,3-dimethyl-6-[3-(1-methylpyrazol-4-yl)-8-isoquinolyl]-2-oxo-benzimidazol-4-yl]-3,6-dihydro-2H-pyridin-1-yl]methyl]-1-piperidyl]pyridazine-3-carboxamide]: the EC50 at AR / CBP ternary complex (setting [1]) is < 1 nM. This molecule gave a concentration for half-maximal inhibition (IC50) in the assay with VCaP cells of 0.1 to 1 nM.
With `Cn1cc(-c2cc3c(cc2C(F)F)N(c2cc(C4=CCN(CC5CCN(c6ccc(C(=O)N[C@H]7CC[C@H](Oc8ccc(C#N)c(Cl)c8)CC7)nn6)CC5)CC4)c4c(c2)n(C)c(=O)n4C)CCC3)cn1` [Compound 148], the EC50 on AR / CBP ternary complex (setting [1]) is < 1 nM. The IC50 with VCaP cells is 0.1 to 1 nM.
As for `CC(=O)N1CCc2c(c(N3CCCc4cc(-c5cnn(C)c5)c(C(F)F)cc43)nn2[C@@H]2[C@@H]3C[C@H]2CN(CC2CCN(c4ccc(C(=O)N[C@H]5CC[C@H](Oc6ccc(C#N)c(Cl)c6)CC5)nn4)CC2)C3)C1` [Compound 149, N-[4-(3-chloro-4-cyano-phenoxy)cyclohexyl]-6-[4-[[rac-(1S,5R)-6-[5-acetyl-3-[7-(difluoromethyl)-6-(1-methylpyrazol-4-yl)-3,4-dihydro-2H-quinolin-1-yl]-6,7-dihydro-4H-pyrazolo[4,3-c]pyridin-1-yl]-3-azabicyclo[3.1.1]heptan-3-yl]methyl]-1-piperidyl]pyridazine-3-carboxamide], at AR / CBP ternary complex (setting [2]), the EC50 is < 1 nM. This molecule registered an IC50 in the assay with VCaP cells of 0.1 to 1 nM.
Regarding `CC(=O)N1CCc2c(c(N3CCCc4cc(-c5cnn(C)c5)c(C(F)F)cc43)nn2[C@H]2[C@@H]3C[C@H]2CN(CC2CCN(c4ccc(C(=O)N[C@H]5CC[C@H](Oc6ccc(C#N)c(Cl)c6)CC5)nn4)CC2)C3)C1` [Compound 150, N-[4-(3-chloro-4-cyano-phenoxy)cyclohexyl]-6-[4-[[rac-(1R,5S)-6-[5-acetyl-3-[7-(difluoromethyl)-6-(1-methylpyrazol-4-yl)-3,4-dihydro-2H-quinolin-1-yl]-6,7-dihydro-4H-pyrazolo[4,3-c]pyridin-1-yl]-3-azabicyclo[3.1.1]heptan-3-yl]methyl]-1-piperidyl]pyridazine-3-carboxamide], the EC50 at AR / CBP ternary complex (setting [2]) lay within 1 to 10 nM. In the assay with VCaP cells, this molecule had an IC50 of 0.1 to 1 nM.
For `CC(=O)N1CCc2c(c(N3CCCc4cc(-c5cnn(C)c5)c(C(F)F)cc43)nn2[C@@H]2C[C@H]3CC[C@@H](C2)N3CC2CCN(c3ccc(C(=O)N[C@H]4CC[C@H](Oc5ccc(C#N)c(Cl)c5)CC4)nn3)CC2)C1` [Compound 152, 6-[4-[[(1R,5S)-3-[5-acetyl-3-[7-(difluoromethyl)-6-(1-methylpyrazol-4-yl)-3,4-dihydro-2H-quinolin-1-yl]-6,7-dihydro-4H-pyrazolo[4,3-c]pyridin-1-yl]-8-azabicyclo[3.2.1]octan-8-yl]methyl]-1-piperidyl]-N-[4-(3-chloro-4-cyano-phenoxy)cyclohexyl]pyridazine-3-carboxamide], at AR / CBP ternary complex (setting [2]), the EC50 was < 1 nM. This molecule also yielded an IC50 in the assay with VCaP cells of 0.1 to 1 nM.
For the molecule `CC(=O)N1CCc2c(c(-c3cccc4cc(-c5ccc(CCC6CCN(c7ccc(C(=O)N[C@H]8CC[C@H](Oc9ccc(C#N)c(Cl)c9)CC8)nn7)CC6)cc5)ncc34)nn2C2CCOCC2)C1` [Compound 153, 6-[4-[2-[4-[8-(5-acetyl-1-tetrahydropyran-4-yl-6,7-dihydro-4H-pyrazolo[4,3-c]pyridin-3-yl)-3-isoquinolyl]phenyl]ethyl]-1-piperidyl]-N-[4-(3-chloro-4-cyano-phenoxy)cyclohexyl]pyridazine-3-carboxamide], the EC50 at AR / CBP ternary complex (setting [1]) was < 1 nM. For the same molecule, the IC50 in the assay with VCaP cells is ≤ 0.1 nM.
On to `CC(=O)N1CCc2c(c(N3CCCc4cc(-c5ccc(CCC6CCN(c7ccc(C(=O)N[C@H]8CC[C@H](Oc9ccc(C#N)c(Cl)c9)CC8)nn7)CC6)cc5)c(C(F)F)cc43)nn2C2CCOCC2)C1` [Compound 154, 6-[4-[2-[4-[1-(5-acetyl-1-tetrahydropyran-4-yl-6,7-dihydro-4H-pyrazolo[4,3-c]pyridin-3-yl)-7-(difluoromethyl)-3,4-dihydro-2H-quinolin-6-yl]phenyl]ethyl]-1-piperidyl]-N-[4-(3-chloro-4-cyano-phenoxy)cyclohexyl]pyridazine-3-carboxamide], for which the EC50 at AR / CBP ternary complex (setting [1]) is < 1 nM. In the assay with VCaP cells, the IC50 was 0.1 to 1 nM.
Consider `CC(=O)N1CCc2c(c(N3CCCc4cc(-c5cnn(C)c5)c(C(F)F)cc43)nn2C2CCC(CC3CCN(c4ccc(C(=O)N[C@H]5CC[C@H](Oc6ccc(C#N)c(Cl)c6)CC5)nn4)CC3)CC2)C1` (stereo partly drawn) [Compound 155, 6-[4-[[4-[5-acetyl-3-[7-(difluoromethyl)-6-(1-methylpyrazol-4-yl)-3,4-dihydro-2H-quinolin-1-yl]-6,7-dihydro-4H-pyrazolo[4,3-c]pyridin-1-yl]cyclohexyl]methyl]-1-piperidyl]-N-[4-(3-chloro-4-cyano-phenoxy)cyclohexyl]pyridazine-3-carboxamide], for which the EC50 on AR / CBP ternary complex (setting [1]) is < 1 nM. Further, the IC50 in the assay with VCaP cells was in the range of 0.1 to 1 nM.
